The assay deals with T1, arylamine-N-acetyltransferase (TBNAT) (Mycobacterium tuberculosis, UniProt P9WJI5).
T1 construct: gene nat
T1 sequence (P9WJI5 1-283): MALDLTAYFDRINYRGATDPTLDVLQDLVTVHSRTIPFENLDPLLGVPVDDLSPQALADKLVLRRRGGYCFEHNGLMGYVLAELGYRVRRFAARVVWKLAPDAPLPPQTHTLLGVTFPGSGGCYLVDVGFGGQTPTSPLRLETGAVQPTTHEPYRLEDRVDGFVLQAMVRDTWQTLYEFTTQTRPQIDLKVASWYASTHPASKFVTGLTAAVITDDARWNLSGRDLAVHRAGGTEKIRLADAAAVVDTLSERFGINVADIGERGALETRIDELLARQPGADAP
The experiment in a line: biochemical.

With `NNC(=O)c1ccncc1` [INH, isoniazid], half-maximal inhibition (IC50) required 6.2 µM. That is a single-digit micromolar value.
The result for `COc1cc(C(=O)O)c2c(c1C)OC(=O)c1c(C)cc(O)c(C=O)c1O2` [PA, psoromic acid] reads 8.7 µM.
